Tests used:
γ-globin gene promoter = assay: In vivo footprinting of the γ-globin promoter; parameters: species or system human
Method: To determine whether this increase was due to the transcriptional modulation of the γ-globin genes and, if so, to examine whether protein-DNA interactions of regulatory sequences for γ-globin gene expression have been changed, in vivo footprinting analysis of the γ-globin gene promoter and HSS-II region of the locus control region (LCR) were performed. […] Compared to conventional in vitro footprinting methods, which are ordinarily employed to analyze protein-DNA interactions for promoter regions and fail to disclose tissue-specific binding of nuclear proteins to cis-acting elements, in vivo footprinting technique is able to provide bona fide information on transcription factors binding to cis-acting elements that reflects in vivo situations.
(§1) Erythroid cell-rich fractions were prepared from patients' peripheral blood or bone marrow before and during treatment, and were in vivo methylated using DMS. Ligation-mediated polymerase chain reaction (LM-PCR) was performed (J. L. Mueller et al., Sci. 246:780-86, 1989). Briefly, 3-7 μg of DNA was suspended in 15 μl of solution A (40 mM Tris-HCl, pH 7.7, 50 mM NaCl) containing […] of primer. First-strand synthesis was performed by adding 7.5 μl of solution B (20 mM MgCl2, 20 mM DTT, 60 μM dNTP) and 1.5 μl of 1:4 diluted Sequenase version 2.0 (United States Biochemical; Cleveland, Ohio) with TE and incubating at 50° C. for 10 minutes. The reaction was quenched by heating at 68° C. for 10 minutes, adding 6 μl of 310 mM Tris-HCl, pH 7.7, and subsequently extracting with phenol/chloroform/isoamyl alcohol (25:24:1) and with ether. […] All of the footprints were analyzed two or more times to ensure reproducibility.
In the γ-globin gene promoter, a DNA fragment extending up to -200 bp relative to the transcription start site is sufficient to direct efficient transcription of the γ-globin genes (K. T. McDonagh et al., J. Biol. Chem. 266:11965-74, 1991; M. J. Urich Blood 75:990-99, 1990). […] Erythroblasts from a patient with sickle cell anemia, before and after butyrate treatment were analyzed. […]

[1] = test system: HSS-II region of the locus control region (LCR); assay: In vivo footprinting of HSS-II; parameters: species or system human
Method: as §1
Several lines of evidence obtained from DNA transfection and transgenic experiments have corroborated the functional importance of HSS-II of the LCR in regulating β-like globin gene expression. […] In view of these observations, the patterns of in vivo footprints of HSS-II in erythroid cell preparations that were obtained from pre-treatment and post-treatment blood samples were analyzed. […]

[2] = test system: γ-globin promoter fragment containing FRE-γ1; assay: Gel mobility shift assay with FRE-γ1 promoter fragment; parameters: species or system human
[3] = test system: γ-globin promoter (-61 construct, K562 cells); assay type: cell-based, human
Source text: Functional assay underscores the important role of FRE-γ1 in γ-globin gene expression in K562 cells. To ascertain whether the FRE elements of the γ-globin promoter that were identified by in vivo footprinting were indeed involved in arginine butyrate inducibility for γ-globin gene expression, a series of 5' deletion constructs of the γ-globin promoter, extending from -256 to -61, were constructed and linked them to the NEO gene. Activity of the NEO gene of these constructs, in response to arginine butyrate treatment, was examined by transfecting these reporters into K562 cells. In K562 cells, a construct driven by 256 bp of promoter was able to direct NEO activity expression, resulting in colony formation. […] Deletion to position -61 reduced promoter activity to 33-40% of the activity seen with the -256 bp construct.

fetal globin production = settings: cited from earlier work
[4] = test system: fetal globin (gamma globin); assay: Fetal globin expression in erythroid progenitor cells from cord blood; assay type: cell-based, human
Method: Compositions were tested for activity in inducing fetal globin expression and protein production in erythroid progenitor cells cultured from human cord blood and analyzed as described by S. P. Perrine et al. (Blood 74: 454-60, 1989). Briefly, mononuclear cells were cultured in IMDM with 30% fetal calf serum and 2 units erythropoietin per ml to induce erythroid differentiation. Colonies were harvested on day 12-13, incubated with radio-labelled (^3 H) leucine, and further incubated in leucine-free media, still in the presence of compounds, overnight. Globin composition in the erythroid cells was analyzed by laser densitometry of electrophoretically separated globin chains stained with Coomassie blue, and by autoradiography. Treated cells were incubated for 12-13 days (Table 2, Experiments A and B) or overnight (Table 2, Experiment C) in the presence of the indicated compounds and compared to untreated control cells cultured from the same human subject.

[5] = erythroblast nuclear extracts of thalassemic patients (FIG. 17)

Row | SMILES | footprints in the γ-globin promoter (γ-globin gene promoter; erythroblasts of a sickle cell anemia patient, post-treatment (FIG. 13)) | induction of transcription factors interacting with the γ-globin gene promoter (γ-globin gene promoter; sickle cell anemia patient) | degree of protection on G residues in FRE-γ1 (γ-globin gene promoter; β-thalassemia and sickle cell anemia patients (FIG. 14)) | footprints over HSS-II ([1]; erythroblasts of treated sickle cell patient (FIG. 15)) | region of new protection upstream of the GATA-1 binding sequence ([1]; treated patients (FIG. 15)) | new binding activity (activator) [2, 5] | other binding activity (repressor) [2, 5] | activator and repressor bands in non-responder ([2]; patient with sickle cell anemia who did not respond) | induction of construct activity [3] | stimulation of fetal globin production (fetal globin production) | Gamma/(Gamma + Beta) ([4]; Exp. A, 0.1 mM, 12-13 days, untreated 76.0%) [%] | Gamma/(Gamma + Beta) ([4]; Exp. B, 0.5 mM, 12-13 days, untreated 25.4%, 27.5%) [%] | Gamma/(Gamma + Beta) ([4]; Exp. C, 0.5 mM, overnight, untreated 52.0%) [%]
1 | CCCC(=O)O [AB, arginine butyrate] | four major footprints in the fetal response elements | induces multiple transcription factors which interact with the γ-globin gene promoter, resulting in activation | consistently increased | novel in vivo footprints that were not seen in a pre-treatment sample became apparent | about 40 bp | a new binding activity appeared | disappeared | no increase in the intensity of the activator band or loss of the repressor band | 2.5-4 fold | effective in stimulating fetal globin production | – | – | –
2 | O=C(O)COc1ccccc1 [PAA, Phenoxyacetic acid] | – | – | – | – | – | – | – | – | – | – | 82.0 | 38.8 | 55.6

— US6011000A, “Compositions for the treatment of blood disorders” (priority 1995, dated 2000)
